Laboratory results published in PMC10227015, “From a drug repositioning to a structure-based drug design approach to tackle acute lymphoblastic leukemia” (Nature Communications, 2023).
Like-named read-outs stand apart in the source and are kept apart here.

Legend:
dCK-C3S-S74E [1] = experiment: Enzymatic assay (PK/LDH coupled), dC phosphorylation by dCK in the presence of UTP; format: biochemical, human; details: presence of UTP
Protocol: (§1) For enzymatic assays, cells were re-suspended in 20 mM TRIS, pH 8 500 mM NaCl, 0.1% BRIJ-35 and 5% glycerol buffer and one EDTA free anti-protease tablet was added (Roche). After sonication and centrifugation (30,000 × g), the supernatant was loaded on a 5 ml HisTrap FF column (GE healthcare) pre-equilibrated with 20 mM TRIS, pH 8, 500 mM NaCl, 0.01% BRIJ-35 and 5% glycerol buffer. The protein was then eluted by the same buffer containing 250 mM imidazole after a wash containing 25 mM imidazole. The eluted fraction was applied on a HiPrep 26/10 desalting column (GE healthcare) pre-equilibrated with 20 mM TRIS, pH 8, 500 mM NaCl, 5% glycerol and 0.01% BRIJ-35 buffer. Finally, protein in a 20% glycerol buffer was flash frozen in liquid nitrogen and stored at −80 °C.
(§2) Kinetic analyses were performed using a spectrophotometric continuous enzymatic-coupled assay using pyruvate kinase (PK) and lactate dehydrogenase (LDH). […] UTP is the physiological dCK-phosphate donor[46] and it was used to determine activation versus inhibition behavior. ATP was used to calculate IC50 values, as it allows the analysis of a dose response curve. The PK/LDH coupled assay is based on the conversion of phosphoenolpyruvate (PEP) and UDP/ADP to pyruvate and UTP/ATP by PK and the subsequent conversion of pyruvate to lactate by LDH. The latter step requires NADH, which is oxidized to NAD^+. NADH is fluorescent (excitation at 337 nm and emission at 460 nm), but not NAD^+. Thus, the measurement of fluorescent decrease at 460 nm is a measure of kinase activity. dCK experiments were performed in a buffer containing 50 mM HEPES, pH 7.5, 5 mM MgCl2, 1 mM DTT, and 100 mM KCl. Buffer was supplemented with PK (0.01 U/µl), LDH (0.02 U/µl), PEP (1 mM), NADH (300 µM) and compounds at varying concentrations. For UTP assays, protein concentration was 2 μM, substrate 200 µM (dC), and UTP 1 mM. For ATP assays, protein concentration was 100 nM (and 50 nM when indicated), substrate 100 µM (dC), and ATP 1 mM. All measurements were performed on a microplate reader Pherastar FS (BMG Labtech). All assays were performed in triplicate and each experiment was performed at least twice. The data are presented as mean ± SD. The results were plotted as kinetics and the velocity was determined for each condition as the slope of the linear range of the curve. For each compound concentration, the velocity of the reaction (according to V = d[P]/dt) was normalized with respect to the drug free control and velocity ratios were compared. IC50 values corresponding to enzymatic inhibition in ATP were calculated by nonlinear regression curves using GraphPad Prism software 9.4.0.

dCK-C3S-S74E [2] = experiment: Enzymatic assay (PK/LDH coupled), dC phosphorylation by dCK in the presence of ATP; format: biochemical, human; details: presence of ATP, [dCK] = 50 nM (footnote A); read-out: ENZYMATIC ASSAY IC50
Protocol: as §1
(§3) Kinetic analyses were performed using a spectrophotometric continuous enzymatic-coupled assay using pyruvate kinase (PK) and lactate dehydrogenase (LDH). Analysis of the effect of compounds on dCK-C3S-S74E activity was performed using dC as substrate and UTP/ATP as phosphate donors. UTP is the physiological dCK-phosphate donor[46] and it was used to determine activation versus inhibition behavior. ATP was used to calculate IC50 values, as it allows the analysis of a dose response curve. The PK/LDH coupled assay is based on the conversion of phosphoenolpyruvate (PEP) and UDP/ADP to pyruvate and UTP/ATP by PK and the subsequent conversion of pyruvate to lactate by LDH. The latter step requires NADH, which is oxidized to NAD^+. NADH is fluorescent (excitation at 337 nm and emission at 460 nm), but not NAD^+. Thus, the measurement of fluorescent decrease at 460 nm is a measure of kinase activity. dCK experiments were performed in a buffer containing 50 mM HEPES, pH 7.5, 5 mM MgCl2, 1 mM DTT, and 100 mM KCl. Buffer was supplemented with PK (0.01 U/µl), LDH (0.02 U/µl), PEP (1 mM), NADH (300 µM) and compounds at varying concentrations. For UTP assays, protein concentration was 2 μM, substrate 200 µM (dC), and UTP 1 mM. For ATP assays, protein concentration was 100 nM (and 50 nM when indicated), substrate 100 µM (dC), and ATP 1 mM. All measurements were performed on a microplate reader Pherastar FS (BMG Labtech). All assays were performed in triplicate and each experiment was performed at least twice. The data are presented as mean ± SD. The results were plotted as kinetics and the velocity was determined for each condition as the slope of the linear range of the curve. For each compound concentration, the velocity of the reaction (according to V = d[P]/dt) was normalized with respect to the drug free control and velocity ratios were compared. IC50 values corresponding to enzymatic inhibition in ATP were calculated by nonlinear regression curves using GraphPad Prism software 9.4.0.

CCRF-CEM cell line = experiment: dCK cellular assay: CCRF-CEM proliferation in the presence of dT and dC; format: cell-based, human; details: for IC50: Homo sapiens, read-out: IC50 (nM) (Cell Prolif)
Protocol: The dCK cellular assay was set up to assess the ability to inhibit dCK activity in a cellular model. The model was developed with a T-cell acute lymphoblastic leukemia cell line (CCRF-CEM), because of its high dependence on the SP, thus on dCK activity. Cellular assays were performed to assess the inhibition of cell proliferation under two conditions: (i) in the presence of the compound alone to determine the nonspecific effect on cells, independent of dCK (nonspecific toxicity) and (ii) in the presence of an inhibitor of the DNP to determine the ability of compounds to inhibit dCK and decrease tumor proliferation (activity on dCK). The inhibitor of the DNP chosen for the experiments was thymidine (dT), a physiological inhibitor of ribonucleotide reductase which arrests cell proliferation in phase S. The dTTP produced via thymidine kinase from dT acts as a RNR inhibitor by an allosteric regulation of the R1 subunit. The addition of the nucleoside deoxycytidine (dC) in the medium allows the rescue of cell proliferation by passing only through the salvage pathway, mediated by dCK. dC needs to be added exogenously to mimic physiological concentrations because it is not present in the cell culture medium, on the contrary to mouse model, in which it is naturally present in the serum. Therefore, cell proliferation under these conditions (+dT +dC) is dCK dependent and it is possible to determine the IC50 of dCK inhibitors on the inhibition of cell proliferation. Results are expressed as % cell proliferation relative to the control with DMSO.
The amount of reduced dye formed by metabolically active cells was quantified by its fluorescence measured at 560 nm (excitation) and 590 nm (emission) in a microplate reader (CLARIOstar, BMG Labtech). A blank well without cells was used as a background control. Each experiment was performed at least three times (with technical triplicates) and data are presented as the mean ± SD.

dCK-C3S-S74E [3] = experiment: Thermal shift assay (TSA); details: for ΔTm (º) (TSA): Figure 2a, mean; for THERMAL SHIFT ASSAY +Tm (°): mean ± SD
dCK-C3S-S74E [4] = target: T1, dCK-C3S-S74E (Homo sapiens, UniProt P27707, form not given/S74E); experiment: Enzymatic assay (PK/LDH coupled), dC phosphorylation by dCK in the presence of UTP; format: biochemical; details: presence of UTP
Protocol: as §1, §2

dCK-C3S-S74E [5] = target: T1, dCK-C3S-S74E; experiment: Enzymatic assay (PK/LDH coupled), dC phosphorylation by dCK in the presence of ATP; format: biochemical
Protocol: as §1, §3

[6] = Acute in vivo toxicity, unique IP injection; details: male, mouse, in vivo; Swiss mice, IP, unique injection; read-out: Maximum tolerated dose
Protocol: (§4) To evaluate the in vivo toxicity selected compounds were injected by intraperitoneal (IP) route to 7 weeks-old male Swiss mice (n = 2) at 10, 20, 40, 50, or 80 mg/kg by unique injection. […] Compounds were administered in their hydrochloride salt forms. Mice were then observed closely for the next one hour, then every hour for 8 h. Observations were continued for 72 h for signs of pain or toxicity such as change in the behavior and in the activity in the cage (decreased locomotion) or change in the appearance (curved back, eyes half-closed, bristle hair, hips hollowed out). In vivo toxicity of compound OR0642 at 40 and 80 mg/kg was also assessed in the NOD-SCID-IL2Rγc null (NSG) mice model for 2 weeks in the presence and absence of dT to confirm the safety of the compound. […]. Blood samples were collected and spun at 10,000 × g prior to collecting the plasma supernatants. All plasma samples were frozen at −80 °C before sample processing. 13 μl of each plasma sample was mixed with 33 μl of acetonitrile to precipitate proteins and extract the compound. Samples were vortexed for 5 min and then placed in an ultrasonic bath for 1 min. The precipitated proteins were sedimented by centrifugation (15,000 × g, 5 min, 16 °C). Supernatants were transferred to a microplate to be analyzed by LC–MS/MS. All samples were analyzed with a UHPLC coupled to a Shimadzu LC-MS 8030 triple quadrupole. The solutions of a standard range, prepared with plasma from untreated mice, were analyzed in the same series of injections.

[7] = Plasma pharmacokinetics after IP administration; format: in vivo; details: male, Swiss, mouse, mice, dose 20 mg/Kg
Protocol: as §4

dCK-C3S-S74E [8] = target: T1, dCK-C3S-S74E; experiment: Thermal shift assay (TSA); details: for ΔTm (º) (TSA): Figure 2a, mean
[9] = Figure 2a, CCRF-CEM cell line, mean

T1 sequence (P27707 whole entry S74E, form open): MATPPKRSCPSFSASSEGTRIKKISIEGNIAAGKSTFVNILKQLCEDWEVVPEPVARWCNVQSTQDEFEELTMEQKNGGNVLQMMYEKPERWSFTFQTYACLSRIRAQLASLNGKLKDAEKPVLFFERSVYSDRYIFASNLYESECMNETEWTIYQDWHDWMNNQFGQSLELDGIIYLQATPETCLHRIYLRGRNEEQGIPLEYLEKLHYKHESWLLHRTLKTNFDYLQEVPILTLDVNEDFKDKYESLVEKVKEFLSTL
T1 sequence (P27707 whole entry S74E, form open): as above

## CCCN(c1nc(-c2nc(N)cc(N)n2)cs1)c1cc(-c2ccc(S(=O)(=O)N3CCOCC3)cc2)ccc1C [OR0617]
dCK-C3S-S74E [1]
  ENZYMATIC ASSAY (Activation/Inhibition): I
dCK-C3S-S74E [2]
  IC50: 181 ± 15 nM
CCRF-CEM cell line; [9]
  IC50: 78 nM
dCK-C3S-S74E [3]
  ΔTm (º) (TSA): 18.29 º
  THERMAL SHIFT ASSAY +Tm (°): 18.3 ± 1.1 °

## CCCN(c1nc(-c2nc(N)cc(N)n2)cs1)c1cc(-c2ccc(S(=O)(=O)N(C)C)cc2)ccc1C [OR0618]
dCK-C3S-S74E [1]
  ENZYMATIC ASSAY (Activation/Inhibition): I
dCK-C3S-S74E [2]
  IC50: 139 ± 12 nM
CCRF-CEM cell line; [9]
  IC50: 80 nM
dCK-C3S-S74E [3]
  ΔTm (º) (TSA): 18.79 º
  THERMAL SHIFT ASSAY +Tm (°): 18.8 ± 0.6 °

## CCCN(c1nc(-c2nc(N)cc(N)n2)cs1)c1cc(-c2ccc(S(=O)(=O)N3CCN(C)CC3)cc2)ccc1C [OR0624]
dCK-C3S-S74E [4]
  ENZYMATIC ASSAY (Activation/Inhibition): I
dCK-C3S-S74E [5]; 0.02 µM
  Enzymatic activity (ATP) Mean (% activity): 91.0%
dCK-C3S-S74E [5]; 0.04 µM
  Enzymatic activity (ATP) Mean (% activity): 91.7%
dCK-C3S-S74E [5]; 0.08 µM
  Enzymatic activity (ATP) Mean (% activity): 65.2%
dCK-C3S-S74E [5]; 0.16 µM
  Enzymatic activity (ATP) Mean (% activity): 32.0%
dCK-C3S-S74E [5]; 0.31 µM
  Enzymatic activity (ATP) Mean (% activity): 9.2%
dCK-C3S-S74E [5]; 0.63 µM
  Enzymatic activity (ATP) Mean (% activity): 3.9%
dCK-C3S-S74E [5]; 1.25 µM
  Enzymatic activity (ATP) Mean (% activity): 2.6%
dCK-C3S-S74E [5]; 2.5 µM
  Enzymatic activity (ATP) Mean (% activity): 1.2%
dCK-C3S-S74E [5]; 5 µM
  Enzymatic activity (ATP) Mean (% activity): 0.363%
dCK-C3S-S74E [5]; read-out: ENZYMATIC ASSAY IC50, presence of ATP, [dCK] = 50 nM (footnote A)
  IC50: 198 ± 131 nM
[6]
  MTD at 72 h: 20 mg/kg
[7]
  Cmax: 3.1 ± 0.6 µM
  Tmax: 1 h
[7]; read-out: T ½ (converted)
  half-life: 2.22 ± 0.183 h
dCK-C3S-S74E [8]
  ΔTm (º) (TSA): 19.49 º
dCK-C3S-S74E [8]; Figure 2b
  Thermal Shift Assay Mean (ΔTm (º)): 19.5 º
dCK-C3S-S74E [8]; mean ± SD
  THERMAL SHIFT ASSAY +Tm (°): 19.5 ± 0.8 °

## CCCN(c1nc(-c2nc(N)cc(N)n2)cs1)c1cc(-c2ccc(S(=O)(=O)N3CCN(CC(=O)[O-])CC3)cc2)ccc1C.[Na+] [OR0649]
CCRF-CEM cell line; CCRF-CEM
  IC50: 13400 nM
dCK-C3S-S74E [8]
  ΔTm (º) (TSA): 17.61 º

## CCCN(c1nc(-c2cccnc2)cs1)c1cc(-c2ccc(S(=O)(=O)N3CCN(C)CC3)cc2)ccc1C [OR0659]
dCK-C3S-S74E [5]; ATP, read-out: enzymatic inhibition IC50
  IC50: > 100000 nM
CCRF-CEM cell line; CCRF-CEM, presence of dT + dC
  inhibition of cell proliferation in combination with dT: unable to inhibit cellular proliferation
dCK-C3S-S74E [8]; 5 μM protein, 50 μM compound
  ΔTm, dCK thermal stabilization (TSA): 6.3 °C
